pIC50: −log10 of the molar value.

This assay addresses T1, human CD73 (Homo sapiens, UniProt P21589).
T1 sequence (P21589 27-549): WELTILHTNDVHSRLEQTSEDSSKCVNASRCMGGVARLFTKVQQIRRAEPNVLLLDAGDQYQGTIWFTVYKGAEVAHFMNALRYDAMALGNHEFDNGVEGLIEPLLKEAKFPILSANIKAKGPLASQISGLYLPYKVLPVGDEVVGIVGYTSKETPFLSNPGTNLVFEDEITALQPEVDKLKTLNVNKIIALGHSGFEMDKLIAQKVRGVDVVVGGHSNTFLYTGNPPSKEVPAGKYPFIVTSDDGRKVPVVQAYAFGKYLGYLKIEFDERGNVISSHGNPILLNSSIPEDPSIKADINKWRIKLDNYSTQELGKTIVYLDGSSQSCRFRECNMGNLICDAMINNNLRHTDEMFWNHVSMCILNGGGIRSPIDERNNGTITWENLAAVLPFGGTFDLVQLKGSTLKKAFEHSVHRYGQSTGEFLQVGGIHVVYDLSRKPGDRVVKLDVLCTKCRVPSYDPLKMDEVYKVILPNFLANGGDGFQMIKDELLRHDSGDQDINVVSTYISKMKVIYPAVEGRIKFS
Nature of the assay: Inhibition of Ecto-5′-nucleotidase (CD73) activity in CHO-CD73 cells, phosphate release from AMP. The assay is classed as cell-based. The conditions noted are these: CHO-K1 cells stably transfected with human CD73; 25 μM AMP; 50 minutes, 37° C.; read-out: Potency: CD73 IC50.
Regarding `Oc1cccc(-n2nnc3c(Cl)cc(-c4ccnn4Cc4ccccc4)cc32)c1` [Example 9, 3-[6-(1-Benzyl-1H-pyrazol-5-yl)-4-chloro-1H-1,2,3-benzotriazol-1-yl]phenol], the pIC50 (commonly −log10 of the IC50, conventionally taken in molar units) was > 7.00.
In the case of `Clc1ccc(Cn2nccc2-c2cc(Cl)c3nnn(-c4ccc5cn[nH]c5c4)c3c2)cc1` [Example 44], the pIC50 is > 7.00.
The result for `Clc1cc(-c2ccnn2Cc2ccccn2)cc2c1nnn2-c1ccc2cn[nH]c2c1` [Example 45] reads 6.00 to 7.00; that for `FC(F)(F)Oc1ccc(Cn2nccc2-c2cc(Cl)c3nnn(-c4ccc5cn[nH]c5c4)c3c2)cc1` [Example 46], > 7.00; that for `c1cc(-c2ccc3nnn(-c4ccc5cn[nH]c5c4)c3c2)n(CC2CC2)n1` [Example 47], < 6.00.
In the case of `N#Cc1cccc(Cn2nccc2-c2ccc3nnn(-c4ccc5cn[nH]c5c4)c3c2)c1` [Example 48], the pIC50 is < 6.00.
As for `CC(C)c1ccc(Cn2nccc2-c2cc(Cl)c3nnn(-c4ccc5cn[nH]c5c4)c3c2)cc1` [Example 51], the figure is 6.00 to 7.00; as for `Clc1ccccc1Cn1nccc1-c1cc(Cl)c2nnn(-c3ccc4cn[nH]c4c3)c2c1` [Example 52], > 7.00.
Consider `FC(F)(F)Oc1ccccc1Cn1nccc1-c1cc(Cl)c2nnn(-c3ccc4cn[nH]c4c3)c2c1` [Example 53], for which the pIC50 is 6.00 to 7.00.
With `Cc1ccc(Cn2nccc2-c2cc(Cl)c3nnn(-c4ccc5cn[nH]c5c4)c3c2)cc1` [Example 54], the pIC50 is > 7.00.
The result for `COc1ccc(Cn2nccc2-c2ccc3nnn(-c4ccc5cn[nH]c5c4)c3c2)cc1` [Example 55] reads 6.00 to 7.00; that for `Cc1cnn(Cc2ccc(Cl)cc2)c1-c1cc(Cl)c2nnn(-c3ccc4cn[nH]c4c3)c2c1` [Example 56], 6.00 to 7.00; that for `Fc1cc(Cn2nccc2-c2ccc3nnn(-c4ccc5cn[nH]c5c4)c3c2)ccc1Cl` [Example 58], > 7.00.
The result for `Clc1ccc(Cn2nccc2-c2cc(Cl)c3nnn(-c4ccc5cn[nH]c5c4)c3c2)c(Cl)c1` [Example 59] reads > 7.00; that for `Clc1cccnc1Cn1nccc1-c1cc(Cl)c2nnn(-c3ccc4cn[nH]c4c3)c2c1` [Example 61], < 6.00; that for `FC(F)c1ccc(Cn2nccc2-c2cc(Cl)c3nnn(-c4ccc5cn[nH]c5c4)c3c2)cc1` [Example 63], > 7.00.
Consider `Fc1cc(-c2ccnn2Cc2ccc(Cl)cc2)cc2c1nnn2-c1ccc2cn[nH]c2c1` [Example 64], for which the pIC50 is > 7.00.
With `Fc1cc(-c2ccnn2Cc2ccccc2Cl)cc2c1nnn2-c1ccc2cn[nH]c2c1` [Example 65], the pIC50 is 6.00 to 7.00.
For `CCc1ccc(Cn2nccc2-c2cc(Cl)c3nnn(-c4ccc5cn[nH]c5c4)c3c2)cc1` [Example 68], the pIC50 is > 7.00.
With `FC(F)(F)c1ccc(Cn2nccc2-c2cc(Cl)c3nnn(-c4ccc5cn[nH]c5c4)c3c2)cc1` [Example 69], the pIC50 is 6.00 to 7.00.
Take `CC(c1ccccc1)n1nccc1-c1cc(Cl)c2nnn(-c3ccc4cn[nH]c4c3)c2c1` (stereo not shown) [Example 70]: the negative logarithm of the IC50 (pIC50) was 6.00 to 7.00.
The result for `CC(c1ccccc1)n1nccc1-c1cc(F)c2nnn(-c3ccc4cn[nH]c4c3)c2c1` (stereo not shown) [Example 71] reads < 6.00; that for `CC(c1ccccc1)n1nccc1-c1ccc2nnn(-c3ccc4cn[nH]c4c3)c2c1` (stereo not shown) [Example 72], < 6.00.
With `Fc1ccc(Cn2nccc2-c2cc(Cl)c3nnn(-c4ccc5cn[nH]c5c4)c3c2)nc1` [Example 73], the pIC50 was > 7.00.
As to `Cc1cnc(Cn2nccc2-c2cc(Cl)c3nnn(-c4ccc5cn[nH]c5c4)c3c2)c(F)c1` [Example 74], the pIC50 was 6.00 to 7.00.
As to `Fc1cc(-c2ccnn2Cc2ccc(Cl)cc2Cl)cc2c1nnn2-c1ccc2cn[nH]c2c1` [Example 75], the pIC50 was > 7.00.
As for `Fc1cc(Cl)ccc1Cn1nccc1-c1cc(F)c2nnn(-c3ccc4cn[nH]c4c3)c2c1` [Example 76], the pIC50 was > 7.00.
Turning to `Clc1cnc(Cn2nccc2-c2ccc3nnn(-c4ccc5cn[nH]c5c4)c3c2)c(Cl)c1` [Example 79], the pIC50 was 6.00 to 7.00.
